Assay: xn = mol fraction of the nth substance listed
Settings: Liquid, Vibrating tube method

CCCCCCCCCC [decane] + CCCCCCC
Settings | mass density [kg/m3]
353.08 K, 19000 kPa, x2 = 0.777 | 668.89
353.08 K, 20000 kPa, x2 = 0.5219 | 683.14
353.08 K, 20000 kPa, x2 = 0.777 | 669.88
353.08 K, 21000 kPa, x2 = 0.5219 | 684.06
353.08 K, 21000 kPa, x2 = 0.777 | 670.85
353.08 K, 22000 kPa, x2 = 0.5219 | 684.96
353.08 K, 22000 kPa, x2 = 0.777 | 671.79
353.08 K, 23000 kPa, x2 = 0.5219 | 685.84
353.08 K, 23000 kPa, x2 = 0.777 | 672.72
353.08 K, 24000 kPa, x2 = 0.5219 | 686.7
353.08 K, 24000 kPa, x2 = 0.777 | 673.63
353.08 K, 25000 kPa, x2 = 0.5219 | 687.54
353.08 K, 25000 kPa, x2 = 0.777 | 674.52
353.09 K, 1000 kPa, x2 = 0.2594 | 674.78
353.09 K, 2000 kPa, x2 = 0.2594 | 675.91
353.09 K, 3000 kPa, x2 = 0.2594 | 677.03
353.09 K, 4000 kPa, x2 = 0.2594 | 678.12
353.09 K, 5000 kPa, x2 = 0.2594 | 679.23
353.09 K, 6000 kPa, x2 = 0.2594 | 680.3
353.09 K, 7000 kPa, x2 = 0.2594 | 681.37
353.09 K, 8000 kPa, x2 = 0.2594 | 682.43
353.09 K, 9000 kPa, x2 = 0.2594 | 683.51
353.09 K, 10000 kPa, x2 = 0.2594 | 684.56
353.09 K, 11000 kPa, x2 = 0.2594 | 685.6
353.09 K, 12000 kPa, x2 = 0.2594 | 686.61
353.09 K, 13000 kPa, x2 = 0.2594 | 687.61
353.09 K, 14000 kPa, x2 = 0.2594 | 688.6
353.09 K, 15000 kPa, x2 = 0.2594 | 689.58
353.09 K, 16000 kPa, x2 = 0.2594 | 690.55
353.09 K, 17000 kPa, x2 = 0.2594 | 691.5
353.09 K, 18000 kPa, x2 = 0.2594 | 692.42
353.09 K, 19000 kPa, x2 = 0.2594 | 693.33
353.09 K, 20000 kPa, x2 = 0.2594 | 694.24
353.09 K, 21000 kPa, x2 = 0.2594 | 695.13
353.09 K, 22000 kPa, x2 = 0.2594 | 695.95
353.09 K, 23000 kPa, x2 = 0.2594 | 696.8
353.09 K, 24000 kPa, x2 = 0.2594 | 697.62
353.09 K, 25000 kPa, x2 = 0.2594 | 698.42
353.12 K, 1000 kPa, x2 = 0.952 | 636.17
353.12 K, 2000 kPa, x2 = 0.952 | 637.58
353.12 K, 3000 kPa, x2 = 0.952 | 638.96
353.12 K, 4000 kPa, x2 = 0.952 | 640.34
353.12 K, 5000 kPa, x2 = 0.952 | 641.71
353.12 K, 6000 kPa, x2 = 0.952 | 643.05
353.12 K, 7000 kPa, x2 = 0.952 | 644.36
353.12 K, 8000 kPa, x2 = 0.952 | 645.65
353.12 K, 9000 kPa, x2 = 0.952 | 646.91
353.12 K, 10000 kPa, x2 = 0.952 | 648.14
353.12 K, 11000 kPa, x2 = 0.952 | 649.36
353.12 K, 12000 kPa, x2 = 0.952 | 650.55
353.12 K, 13000 kPa, x2 = 0.952 | 651.72
353.12 K, 14000 kPa, x2 = 0.952 | 652.87
353.12 K, 15000 kPa, x2 = 0.952 | 654
353.12 K, 16000 kPa, x2 = 0.952 | 655.12
353.12 K, 17000 kPa, x2 = 0.952 | 656.22
353.12 K, 18000 kPa, x2 = 0.952 | 657.29
353.12 K, 19000 kPa, x2 = 0.952 | 658.35
353.12 K, 20000 kPa, x2 = 0.952 | 659.4
353.12 K, 21000 kPa, x2 = 0.952 | 660.42
353.12 K, 22000 kPa, x2 = 0.952 | 661.43
353.12 K, 23000 kPa, x2 = 0.952 | 662.41
353.12 K, 24000 kPa, x2 = 0.952 | 663.35
353.12 K, 25000 kPa, x2 = 0.952 | 664.3
363.02 K, 1000 kPa, x2 = 0.5219 | 654.13
363.02 K, 1000 kPa, x2 = 0.777 | 639
363.02 K, 2000 kPa, x2 = 0.5219 | 655.44
363.02 K, 2000 kPa, x2 = 0.777 | 640.47
363.02 K, 3000 kPa, x2 = 0.5219 | 656.74
363.02 K, 3000 kPa, x2 = 0.777 | 641.89
363.02 K, 4000 kPa, x2 = 0.5219 | 657.94
363.02 K, 4000 kPa, x2 = 0.777 | 643.28
363.02 K, 5000 kPa, x2 = 0.5219 | 659.19
363.02 K, 5000 kPa, x2 = 0.777 | 644.65
363.02 K, 6000 kPa, x2 = 0.5219 | 660.44
363.02 K, 6000 kPa, x2 = 0.777 | 646
363.02 K, 7000 kPa, x2 = 0.5219 | 661.67
363.02 K, 7000 kPa, x2 = 0.777 | 647.32
363.02 K, 8000 kPa, x2 = 0.5219 | 662.86
363.02 K, 8000 kPa, x2 = 0.777 | 648.61
363.02 K, 9000 kPa, x2 = 0.5219 | 664.05
363.02 K, 9000 kPa, x2 = 0.777 | 649.89
363.02 K, 10000 kPa, x2 = 0.5219 | 665.24
363.02 K, 10000 kPa, x2 = 0.777 | 651.15
363.02 K, 11000 kPa, x2 = 0.5219 | 666.41
363.02 K, 11000 kPa, x2 = 0.777 | 652.39
363.02 K, 12000 kPa, x2 = 0.5219 | 667.56
363.02 K, 12000 kPa, x2 = 0.777 | 653.61
363.02 K, 13000 kPa, x2 = 0.5219 | 668.7
363.02 K, 13000 kPa, x2 = 0.777 | 654.81
363.02 K, 14000 kPa, x2 = 0.5219 | 669.81
363.02 K, 14000 kPa, x2 = 0.777 | 655.99
363.02 K, 15000 kPa, x2 = 0.5219 | 670.91
363.02 K, 15000 kPa, x2 = 0.777 | 657.15
363.02 K, 16000 kPa, x2 = 0.5219 | 671.98
